Laboratory results published in patent US9255110B2 (Hoffmann-La Roche Inc., priority 2010, dated 2016).
Where a name gives a salt, the structure may show the parent alone.

Tests used:
Format in all cases: biochemical
IRAK-4 = IRAK-4 (Homo sapiens (Human), UniProt Q9NWZ3); assay: In vitro IRAK-4 kinase assay; settings: purified recombinant IRAK-4, 50 uM ATP, 33P peptide phosphorylation
Procedure, shortened: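 Recombinant IRAK-4 or IRAK-1 incubated with 250 uM synthetic peptide in MOPS pH7.2 kinase buffer with 50 uM ATP, 20 mM MgCl2 and γ-33P ATP for the indicated time. Phosphorylated peptide captured on phosphocellulose, washed with phosphoric acid, quantified by scintillation counting.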

IRAK-1 = IRAK-1 (Homo sapiens (Human), UniProt P51617); assay: In vitro IRAK-1 kinase assay; settings: purified recombinant IRAK-1, 50 uM ATP, 33P peptide phosphorylation
IRAK-1, sequence (P51617 whole entry, species assumed): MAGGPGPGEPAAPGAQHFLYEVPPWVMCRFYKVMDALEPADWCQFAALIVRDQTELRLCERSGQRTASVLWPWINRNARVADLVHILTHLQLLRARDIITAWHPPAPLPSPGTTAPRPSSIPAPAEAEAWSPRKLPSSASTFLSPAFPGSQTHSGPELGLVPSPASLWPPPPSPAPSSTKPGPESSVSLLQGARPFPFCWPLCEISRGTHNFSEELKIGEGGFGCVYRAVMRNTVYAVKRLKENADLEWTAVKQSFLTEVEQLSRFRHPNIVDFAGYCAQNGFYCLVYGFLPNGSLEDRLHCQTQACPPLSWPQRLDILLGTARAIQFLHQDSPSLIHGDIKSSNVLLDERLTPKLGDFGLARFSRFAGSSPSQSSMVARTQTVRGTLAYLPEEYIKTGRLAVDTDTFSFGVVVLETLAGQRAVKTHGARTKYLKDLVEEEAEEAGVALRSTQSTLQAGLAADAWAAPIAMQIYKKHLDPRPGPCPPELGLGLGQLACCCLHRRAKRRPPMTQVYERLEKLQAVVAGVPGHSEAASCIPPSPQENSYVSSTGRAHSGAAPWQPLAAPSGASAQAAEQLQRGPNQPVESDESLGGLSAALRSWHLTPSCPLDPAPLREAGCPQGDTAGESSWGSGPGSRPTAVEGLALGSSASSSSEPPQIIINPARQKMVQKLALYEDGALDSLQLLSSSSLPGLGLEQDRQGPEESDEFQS
Experimental: Purified recombinant IRAK-4 protein was incubated with 250 uM synthetic peptide ([…]) in 30 ul of kinase buffer including (20 mM MOPS pH7.2, 25 mM beta glycerol phosphate, 5 mM EGTA, 1 mM sodium orthovanadate, 1 mM DTT, 50 uM ATP, 20 mM MgCl2, 10 uCi γ-^33P, 0.1% BSA) for the indicated time. For purified recombinant IRAK-1 protein kinase assay, 50 uM ATP was used. A 25 ul aliquot of the reaction mixture was transferred on to p81 phosphocellulose squares (Upstate Biotechnology, Lake Placid, N.Y.). The assay squares were washed three times with 0.75% phosphoric acid and once with acetone. Enzyme activity was measured by determining the bound radioactivity by liquid scintillation counting.

human full length SYK = human full length SYK (Homo sapiens (Human), UniProt P43405); assay: In vitro SYK kinase assay; settings: 20 uM ATP, 33P peptide phosphorylation
Experimental: Spleen tyrosine kinase (SYK) is a tyrosine kinase that plays an important role in B cell signal transduction. SYK activity is measured by phosphorylation of a peptide substrate (Biotin-[…]) with [gamma-^33P] ATP. The enzyme reaction was conducted at 20 uM ATP with 0.05 uCi [gamma-^33P]ATP (2 uCi for 40 ul assay) and 10 uM peptide substrate at final volume of 40 ul in buffer containing 50 mM Hepes, pH 7.2, 1 mM dithiothreitol, 10 mM MgCl2, 100 uM Na3VO4, 0.1% BSA and 10% DMSO. The enzyme assay was carried out with human full length SYK in the presence or absence of ten compound concentrations. SYK and compound were pre-incubated for 10 minutes. Then, the enzymatic reaction was initiated by addition of ATP and peptide substrate. The reaction mixture was incubated at room temperature for 30 minutes. At the end of incubation, the reaction was terminated by transferring 25 ul of the reaction mixture to 100 ul of 10% streptavidin slurry containing 100 mM EDTA. The reaction product was captured on the affinity resin and sequentially washed on a filtration plate (Millipore, MABVNOB50) with 2M NaCl, 2M M NaCl in 1% phosphoric acid and water to remove free radio nucleotide. Then the incorporation of ^33P into peptide substrate was quantified on a microplate scintillation counter. Compound inhibition potency on SYK was measured by IC50 value generated from ten concentration inhibition curve fitted into the 3-parameter model: % inhibition=Maximum/(1+(IC50/[Inhibitor])^slope). Data were analyzed on Microsoft Excel for parameter estimation.

IRAK-4, sequence (Q9NWZ3 whole entry, species assumed): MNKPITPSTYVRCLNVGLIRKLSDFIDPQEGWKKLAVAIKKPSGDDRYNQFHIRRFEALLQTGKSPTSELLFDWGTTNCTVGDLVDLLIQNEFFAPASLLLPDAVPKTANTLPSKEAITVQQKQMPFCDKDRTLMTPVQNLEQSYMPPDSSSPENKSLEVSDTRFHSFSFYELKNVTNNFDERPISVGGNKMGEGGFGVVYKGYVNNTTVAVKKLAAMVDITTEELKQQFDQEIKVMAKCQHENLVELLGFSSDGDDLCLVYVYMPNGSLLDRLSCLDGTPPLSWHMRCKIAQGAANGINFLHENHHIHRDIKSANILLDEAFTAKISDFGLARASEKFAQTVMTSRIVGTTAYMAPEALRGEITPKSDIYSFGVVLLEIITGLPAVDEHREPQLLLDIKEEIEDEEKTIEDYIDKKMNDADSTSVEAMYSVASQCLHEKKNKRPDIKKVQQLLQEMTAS

| Compound | IC50 (IRAK-4) [nM] | IC50 (IRAK-1) [nM] | IC50 (human full length SYK) [nM] |
| --- | --- | --- | --- |
| O=C(Nc1cc2cccnc2cc1O[C@H]1CC[C@H](O)CC1)c1csc2cncnc12 | 11 | 168 | – |
| 2-(cis-2-amino-cyclohexylamino)-thieno[3,2-d]pyrimidine-7-carboxylic acid (2,4-dimethoxy-phenyl)-amide [Example 26] | – | 463 | – |
| O=C(Nc1cc2cccnc2cc1O[C@@H]1CC[C@@H](O)C1)c1csc2cncnc12 (stereo in doubt) [hydrochloride] | 15 | 246 | – |
| NCC1CCN(c2cc3ncccc3cc2NC(=O)c2csc3cncnc23)CC1 [Example 14, hydrochloride] | 12 | 850 | – |
| O=C(Nc1cc(Cl)ccc1N1CCCCC1)c1cnn2cc(O)cnc12 [Example 20, 6-Hydroxy-pyrazolo[1,5-a]pyrimidine-3-carboxylic acid (5-chloro-2-piperidin-1-yl-phenyl)-amide] | 24 | 644 | – |
| O=C(Nc1cc2cccnc2cc1OC1CCC(O)CC1)c1cnn2cccnc12 (centres unmarked) [Example 23] | 29 | – | 103 |
| COc1cc2ncccc2cc1NC(=O)c1csc2cnc(N(C)CCO)nc12 [Example 24] | 29 | 300 | – |
| COc1cc2ncccc2cc1NC(=O)c1csc2cc(CO)cnc12 [Example 30, 6-Hydroxymethyl-thieno[3,{tildeover (2)}beta] pyridine-3-carboxylic acid (7-methoxy-quinolin-6-yl)-amide] | 35 | – | 746 |
| O=C1Cc2cc(N3CCC(CO)CC3)c(NC(=O)c3cnn4cccnc34)cc2N1 [Example 34, Pyrazolo[1,5-alpha]pyrimidine-3-carboxylic acid [5-(4-hydroxymethyl-piperidin-1-yl)-2-oxo-2,3-dihydro-1H-indol-6-yl]-amide] | 49 | – | 478 |
| CC(C)(CCO)Oc1cc2ncccc2cc1NC(=O)c1csc2cncnc12 [Example 35, Thieno[3,2-d]pyrimidine-7-carboxylic acid [7-(3-hydroxy-1,1-dimethyl-propoxy)-quinolin-6-yl]-amide hydrochloride] | 49 | 364 | – |
| CN(C)CC1CCN(c2ccc(Cl)cc2NC(=O)c2cnn3cc(O)cnc23)CC1 [Example 37, 6-Hydroxy-pyrazolo[1,5-alpha]pyrimidine-3-carboxylic acid [5-chloro-2-(4-dimethyl-aminomethyl-piperidin-1-yl)-phenyl]-amide] | 53 | 307 | – |
| COc1cc2ncccc2cc1NC(=O)c1csc2cnc(N[C@H](C)CO)nc12 [Example 39, 2-(2-Hydroxy-1-methyl-ethylamino)-thieno[3,2-d]pyrimidine-7-carboxylic acid (7-methoxy-quinolin-6-yl)-amide] | 63 | – | 492 |
| CC(O)C1CCN(c2ccc(Cl)cc2NC(=O)c2cnn3cccnc23)C1 (stereo not drawn) [Example 44, Pyrazolo[1,{tildeover (5)}-alpha] pyrimidine-3-carboxylic acid {5-chloro-2-[3-(1-hydroxy-ethyl)-pyrrolidin-1-yl]-phenyl}-amide] | 76 | 897 | – |
| COc1cc2ncccc2cc1NC(=O)c1csc2cnc(NCC(O)CO)nc12 (centres unmarked) [Example 47, 2-(2,3-Dihydroxy-propylamino)-thieno[3,2-d]pyrimidine-7-carboxylic acid (7-methoxy-quinolin-6-yl)-amide] | 82 | 608 | – |
| O=C(Nc1cc(Cl)ccc1N1CCC(CO)CC1)c1csc2cncnc12 [Example 49, Thieno[3,2-d]pyrimidine-7-carboxylic acid [5-chloro-2-(4-hydroxymethyl-piperidin-1-yl)-phenyl]-amide] | 100 | 700 | – |
| O=C(Nc1cc(Cl)ccc1O[C@H]1CC[C@@H](O)CC1)c1csc2cncnc12 [Example 62, Thieno[3,2-d]pyrimidine-7-carboxylic acid [5-chloro-2-(4-hydroxy-cyclohexyloxy)-phenyl]-amide] | 149 | 126 | – |
| NCC1CCN(c2ccc(Cl)cc2NC(=O)c2csc3cncnc23)CC1 [Example 64, Thieno[3,2-d]pyrimidine-7-carboxylic acid [2-(4-aminomethyl-piperidin-1-yl)-5-chloro-phenyl]-amide] | 167 | 800 | – |

| Compound | IC50 (IRAK-4) [nM] | IC50 (IRAK-1) [nM] | IC50 (human full length SYK) [nM] |
| --- | --- | --- | --- |
| O=C(Nc1cc(Cl)ccc1O[C@H]1CC[C@H](O)CC1)c1csc2cncnc12 [Example 81, Thieno[3,2-d]pyrimidine-7-carboxylic acid [5-chloro-2-(4-hydroxy-cyclohexyloxy)-phenyl]-amide] | 338 | 600 | – |
| COc1cc(-c2ccccc2)ccc1NC(=O)c1cnn2cccnc12 [Example 165, Pyrazolo[1,5-alpha]pyrimidine-3-carboxylic acid (3-methoxy-biphenyl-4-yl)-amide] | 5200 | – | – |
| CCc1ccc(OC)c(NC(=O)c2cnn3cccnc23)c1 [Example 166, Pyrazolo[1,5-alpha]pyrimidine-3-carboxylic acid (5-ethyl-2-methoxy-phenyl)-amide] | 5880 | – | – |
| COc1cc(-c2ccccc2)c(C)cc1NC(=O)c1cnn2cccnc12 [Example 167, Pyrazolo[1,5-alpha]pyrimidine-3-carboxylic acid (5-methoxy-2-methyl-biphenyl-4-yl)-amide] | 5940 | – | – |
| COc1c(C)cc(C)cc1NC(=O)c1cnn2cccnc12 [Example 168, Pyrazolo[1,5-alpha]pyrimidine-3-carboxylic acid (2-methoxy-3,5-dimethyl-phenyl)-amide] | 6520 | – | – |
| COc1ccccc1NC(=O)c1csc2cncnc12 [Example 169, Thieno[3,2-d]pyrimidine-7-carboxylic acid (2-methoxy-phenyl)-amide] | 6560 | – | – |
| Cc1ccn2ncc(C(=O)Nc3cc(Cl)ccc3OC3CCC(O)CC3)c2n1 (stereo not drawn) [Example 170, 5-Methyl-pyrazolo[1,5-alpha]pyrimidine-3-carboxylic acid [5-chloro-2-(4-hydroxy-cyclohexyloxy)-phenyl]-amide] | 6560 | – | – |
| COc1ccccc1NC(=O)c1cnn2cccnc12 [Example 171, Pyrazolo[1,5-alpha]pyrimidine-3-carboxylic acid (2-methoxy-phenyl)-amide] | 7340 | – | – |
| COc1cc(C(=O)N(C)C)ccc1NC(=O)c1cnn2cccnc12 [Example 172, Pyrazolo[1,5-alpha]pyrimidine-3-carboxylic acid (4-dimethylcarbamoyl-2-methoxy-phenyl)-amide] | 7650 | – | – |
| COc1ccc(NC(C)=O)cc1NC(=O)c1cnn2cccnc12 [Example 173, Pyrazolo[1,5-alpha]pyrimidine-3-carboxylic acid (5-acetylamino-2-methoxy-phenyl)-amide] | 7700 | – | – |
| COc1cc(C(=O)Nc2ccccc2)c(Cl)cc1NC(=O)c1cnn2cccnc12 [Example 174, Pyrazolo[1,5-alpha]pyrimidine-3-carboxylic acid (5-chloro-2-methoxy-4-phenylcarbamoyl-phenyl)-amide] | 7920 | – | – |
| COc1ccc(Cl)cc1NC(=O)c1csc2cnc(NCCNC(C)=O)nc12 [Example 175, 2-(2-Acetylamino-ethylamino)-thieno[3,2-d]pyrimidine-7-carboxylic acid-(5-chloro-2-methoxy-phenyl)-amide] | 8090 | – | – |
| COc1ccc(CCCO)cc1NC(=O)c1cnn2cccnc12 [Example 176, Pyrazolo[1,5-alpha]pyrimidine-3-carboxylic acid [5-(3-hydroxy-propyl)-2-methoxy-phenyl]-amide] | 8360 | – | – |
| COc1cc(CO)ccc1NC(=O)c1cnn2cccnc12 [Example 177, Pyrazolo[1,5-alpha]pyrimidine-3-carboxylic acid (4-hydroxymethyl-2-methoxy-phenyl)-amide] | 8670 | – | – |
| O=C(Nc1cc(Cl)ccc1OC1CCC(O)CC1)c1cnn2cc(CCCO)cnc12 (stereo not drawn) [Example 178, 6-(3-Hydroxy-propyl)-pyrazolo[1,5-alpha]pyrimidine-3-carboxylic acid [5-chloro-2-(4-hydroxy-cyclohexyloxy)-phenyl]-amide] | 9420 | – | – |
| O=C(Nc1cc(Cl)ccc1OCCO)c1cnn2cccnc12 [Example 179, Pyrazolo[1,5-alpha]pyrimidine-3-carboxylic acid [5-chloro-2-(2-hydroxy-ethoxy)-phenyl]-amide] | 5000 | – | – |
